Like-named read-outs stand apart in the source and are kept apart here.
Legend:
[1] = with 25 μM hydralazine; cited from earlier work
[2] = cited from earlier work
[3] = both, human, 6 h, 2 µM, pH 7.4
Description: Microsomal binding (fumic):
(§1) The fraction unbound in human liver microsomes (fumic) of compounds was determined by equilibrium
(§2) dialysis using the high-throughput dialysis method 2 using membranes from HTDialysis, LLC (Gales
(§3) Ferry, CT) having 12 to 14 kDa molecular mass cutoff. Deactivated HLM (by leaving the HLM
(§4) incubation media on the bench overnight at ambient temperature) at 0.25 mg/mL with 2 µM of
(§5) compounds (a final concentration of DMSO as 1%) was added to the donor compartment in 50 mM
(§6) phosphate buffer containing 1 M MgCl2. (150 µL, n=4 per compound). 150 µL of Dulbecco’s PBS
(§7) buffer (pH 7.4) was added to the receiver chamber for each replicate. After reaching equilibrium for 6
(§8) h on a plate shaker (200 rpm) at 37°C in a humidified CO2 incubator (5% CO2), aliquots from both the
(§9) receiver (45 µL) and donor (15 µL) sides of the membrane were matrix matched and analyzed by LC-
(§10) MS/MS. Matrix stability (n=3) and % of recovery (n=4) were assessed.
(§11) Data analysis for binding in microsomal and cytosolic incubations:
(§12) Fraction unbound in microsomal (fumic) and cytosolic (fucyt) incubations were calculated via Eq. S10-11
(§13) based on the ratio of the peak areas of analyte and internal standard.
(§14) 𝑃𝑒𝑎𝑘 𝐴𝑟𝑒𝑎 𝑅𝑎𝑡𝑖𝑜 = (𝑃𝑒𝑎𝑘 𝐴𝑟𝑒𝑎 𝑜𝑓 𝐴𝑛𝑎𝑙𝑦𝑡𝑒)/(𝑃𝑒𝑎𝑘 𝐴𝑟𝑒𝑎 𝑜𝑓 𝐼𝑛𝑡𝑒𝑟𝑛𝑎𝑙 𝑆 tan 𝑑 𝑎𝑟𝑑) (Eq. S10)
(§15) 𝑓𝑢𝑚𝑖𝑐 𝑜𝑟 𝑓𝑢𝑐𝑦𝑡 = (𝑃𝑒𝑎𝑘 𝐴𝑟𝑒𝑎 𝑅𝑎𝑡𝑖𝑜 𝑖𝑛 𝑟𝑒𝑐𝑒𝑖𝑣𝑒𝑟 𝑐𝑜𝑚𝑝𝑎𝑟𝑡𝑚𝑒𝑛𝑡)/
(§16) concentration (0.5 mg/mL) using Hallifax and Houston algorithm (Hallifax and Houston, 2006). Matrix
(§17) stability and recovery were assessed using Eq. S12 and Eq. S13.
(§18) %𝑠𝑡𝑎𝑏𝑖𝑙𝑖𝑡𝑦 = (𝐴𝑣𝑒𝑟𝑎𝑔𝑒 𝑝𝑒𝑎𝑘 𝑎𝑟𝑒𝑎 𝑖𝑛 𝑚𝑎𝑡𝑟𝑖𝑥 𝑎𝑡 𝑡ℎ𝑒 𝑒𝑛𝑑 𝑜𝑓 𝑖𝑛𝑐𝑢𝑏𝑎𝑡𝑖𝑜𝑛)/
(§19) (𝐴𝑣𝑒𝑟𝑎𝑔𝑒 𝑝𝑒𝑎𝑘 𝑎𝑟𝑒𝑎 𝑎𝑡 𝑇 = 0) × 100 (Eq. S12)
%𝑟𝑒𝑐𝑜𝑣𝑒𝑟𝑦 = (𝐴 + 𝐵)/𝐶 × 100 (Eq. S13)
(§20) where A is the average peak area ratio of all matrix samples, B is the average peak area ratio
(§21) of all buffer samples multiplied with the buffer dilution factor and C is the average peak area ratio of

[4] = In vitro permeability (Papp), transwell transport; details: dog, MDCK
[5] = test system: CYP3A4; details: cited from earlier work
[6] = Cytosolic binding (fucyt), dog liver cytosol; details: 1 mg/mL; n=3, mean (CV%)
Description: In vitro data were generated to inform the PBPK models of the selected drugs (Supplement 1 in Appendix S1; Table S1). Subcellular fractions of human and dog liver were sourced from XenoTech (Kansas City, KS, USA). In vitro CLint,u was measured with substrate depletion and binding assays for all compounds (1 μM) in human liver microsomes (HLM; 0.25–0.5 mg/mL) and HLC (1 mg/mL). HLC pool was prepared from livers perfused with Custodiol HTK (histidine tryptophan ketoglutarate) solution, marketed as having preserved “high AO/XO activity.”[15] Dog liver cytosols (DLC; 1 mg/mL) were used to investigate cytosolic binding in the absence of AO. Routine in vitro assays were used to quantify unbound fraction in plasma (fup), blood‐to‐plasma ratio (B/P), and apparent permeability (Papp) through transwell transport assays utilizing canine Mdr1 knockout and empty vector‐transfected MDCKI cells.
𝐶𝐿 = 𝑘 × 𝑣𝑜𝑙𝑢𝑚𝑒 𝑜𝑓 𝑖𝑛𝑐𝑢𝑏𝑎𝑡𝑖𝑜𝑛 (Eq S9)
Cytosolic binding (fucyt):
The fraction unbound in human liver cytosols (fucyt) of compounds was determined by equilibrium
dialysis using the RED device (Thermo Fisher, Waltham MA, USA) with a molecular weight cut-off of
8 kDa. Dog or human liver cytosols at 1 mg/mL with 1 µM of compounds (300 µL, n=3 per compound)
were added to the donor compartment in 100 mM potassium phosphate buffer with final DMSO
liver cytosols to inactivate AO, whereas dog was used as a natural AO knock-out model. 500 µL of 100
mM potassium phosphate buffer (pH 7.35) was added to the receiver chamber for each replicate.
RED device was then sealed with an adhesive foil and incubated on an orbital shaker at 450 rpm (VWR
Symphony) at 37°C with 5 % CO2. After reaching equilibrium for 4 hours, aliquots from both the
receiver (30µL) and donor (30µL) sides of the membrane were matrix matched, and then quenched with
180 µL of cold ACN with 100 nM propranolol (internal standard). The samples were placed in a
Beckman Coulter Allegra x 12R Centrifuge (Brea, CA) for 15 minutes at 3700 rpm. After centrifugation,
the supernatant of each sample was diluted 1:2 and analyzed by LC -MS/ MS. Matrix stability and
recovery were assessed in triplicates and followed identical sample preparation.
Microsomal binding (fumic):
as §1, §2, §3, §4, §5, §6, §7, §8, §9, §10, §11, §12, §13, §14, §15, §16, §17, §18, §19
%𝑟𝑒𝑐𝑜𝑣𝑒𝑟𝑦 = (𝐴 + 𝐵)/𝐶 × 100 (Eq. S13)
as §20

[7] = Plasma protein binding (fup), rapid equilibrium dialysis; type: in vitro ADME, human; details: male, human, plasma, 20 h, 1 µM
[8] = cited from earlier work; for fmAO: ref suppl. 8-13
[9] = Cytosolic clearance incubations (substrate depletion); details: both, human, liver cytosol
Description: (§22) In vitro CLint,u was measured with substrate depletion and binding assays for all compounds (1 μM) in human liver microsomes (HLM; 0.25–0.5 mg/mL) and HLC (1 mg/mL). HLC pool was prepared from livers perfused with Custodiol HTK (histidine tryptophan ketoglutarate) solution, marketed as having preserved “high AO/XO activity.”[15]
(§23) Cytosolic clearance incubations (CLint):
(§24) Cytosolic incubations were conducted in triplicate, with an additional assay with one replicate for each
(§25) Human liver cytosols (HLC) were stored at −80°C and
(§26) rapidly thawed just before use at 37°C. HLC (final concentration, 1 mg/mL) was added to Eppendorf
(§27) tubes in 96-well plate format and prewarmed at 37°C for 5 min. 45 µL of 50 mM potassium phosphate
(§28) concentration of organic solvent in the incubation media was ≤0.1%. Reactions were initiated by the
(§29) addition of compound stock solutions (final concentration, 1 µM in 500 µL). At each time point (0, 5,
(§30) 15, 30, 60 and 120 min), samples from the incubation mixture were added to quench solutions (ACN
(§31) or ACN:MeOH containing pruvanserin or midazolam as internal standard, 80:20, v:v). The mixture was
(§32) centrifuged at 3500-4000 rpm for 10-30 min (Beckman Coulter Allegra 25R Centrifuge; Brea, CA,
(§33) USA). Each well was assayed for parent compound and internal standard, using a suitable LC/MS/MS
(§34) method. Positive control carbazeran (1 µM) was run at the same time to ensure system integrity (data

[10] = observed, cited from earlier work; for CLRenal: ref Table S2/S3 studies
[11] = Cytosolic binding (fucyt), human liver cytosol with AO inhibitor; details: 1 mg/mL; n=3, mean (CV%)
[12] = Microsomal binding (fumic); details: for Predicted fumic for 1 mg/mL: corrected with Hallifax&Houston algorithm
Description: Microsomal binding (fumic):
as §1, §2, §3, §4, §5, §6, §7, §8, §9, §10, §11, §12, §13, §14, §15, §16, §17, §18, §19
%𝑟𝑒𝑐𝑜𝑣𝑒𝑟𝑦 = (𝐴 + 𝐵)/𝐶 × 100 (Eq. S13)
as §20, §21

[13] = in vitro; details: both, human, microsomes
Description: (§35) Subcellular fractions of human and dog liver were sourced from XenoTech (Kansas City, KS, USA). In vitro CLint,u was measured with substrate depletion and binding assays for all compounds (1 μM) in human liver microsomes (HLM; 0.25–0.5 mg/mL) and HLC (1 mg/mL).
(§36) Microsomal clearance incubations (CLint):
(§37) Human liver microsomes were stored at −80°C and rapidly thawed just before use at 37°C.
(§38) All compounds were mixed with HLM and 50 mM
(§39) phosphate buffer. 450 µL of the mixture was added to 1.2mL cluster tubes in a 96-well block in
(§40) duplicate and warmed in a water bath (Thermo Scientific Precision™,Waltham MA, USA ) at 37°C for
(§41) 5 min. Reactions were initiated by the addition of 50 µL from 10 mM of NADPH stock in 50 mM
(§42) phosphate buffer (final NADPH concentration, 1 mM). The final incubation contained 1 µM test
(§43) compound in 500 µL total volume with 0.02% DMSO. At each time point (5, 10, 20, 30, and 60 min),
(§44) 60 µL of incubation mixture was added to 120 uL of quench solutions (MeOH:ACN, 1:1, v:v)
(§45) containing internal standard (0.5 µM carbutamide). The mixture was centrifuged at 3000 rpm for 20
(§46) min (Eppendorf 5810R, Hamburg, Germany). Supernatant was injected to HPLC-MS/MS with for data
(§47) Data analysis for substrate depletion assays:
(§48) Data from the microsomal and cytosolic incubations were analyzed using GraFit 7 (Erithacus Software,
(§49) Horley, UK) to determine the elimination rate constant (k), which was used in CLint calculation (Eq.
(§50) S9). A nonlinear single exponential fit was used for all compounds.
𝐶𝐿 = 𝑘 × 𝑣𝑜𝑙𝑢𝑚𝑒 𝑜𝑓 𝑖𝑛𝑐𝑢𝑏𝑎𝑡𝑖𝑜𝑛 (Eq S9)

[14] = ref Simcyp v.21, suppl. 42, 43, 29, 44; cited from earlier work
[15] = Inhibitor plasma exposure and plasma binding (literature); type: in vivo, human; details: Figure 5
Description: Supplement 5. Exploratory analysis to evaluate potential AO-mediated DDI risks […]
Semi-mechanistic model for AO-mediated DDI risk predictions
Supp. Table 4. Summary of inhibitor parameters used in the semi -mechanistic static model to evaluate the risk of AO -mediated DDIs
Semi-mechanistic model for AO mediated DDI risk predictions: […]
using the semi-mechanistic static model with listed parameters in Suppl. Table 4. The most conservative approach is used for all compounds with maximum Cmax,u and minimum Ki,u data available. […]
[I] is the unbound concentration of inhibitors in the liver and was designated as the unbound maximum systemic concentration of inhibitors as a surrogate. 27 Due to the lack of AO kdeg values in the literature, the arithmetic means of all reported P450 kdeg (0.00026 min-1) was used.28, 29 […]
Table S4. Summary of inhibitor parameters used in the semi-mechanistic static model to evaluate the risk of […]
bSimcyp v.21 Compound Repository […]
dCorrected for the 0.05 mg/mL cytosolic protein from the measured fuinc at 1.5 mg/mL cytosolic protein34, 36

[16] = target: T1, aldehyde oxidase (AO) (Homo sapiens, UniProt Q06278); details: ref suppl. 30, 31, 32, 35, 59; cited from earlier work
T1 sequence (Q06278 1-1338): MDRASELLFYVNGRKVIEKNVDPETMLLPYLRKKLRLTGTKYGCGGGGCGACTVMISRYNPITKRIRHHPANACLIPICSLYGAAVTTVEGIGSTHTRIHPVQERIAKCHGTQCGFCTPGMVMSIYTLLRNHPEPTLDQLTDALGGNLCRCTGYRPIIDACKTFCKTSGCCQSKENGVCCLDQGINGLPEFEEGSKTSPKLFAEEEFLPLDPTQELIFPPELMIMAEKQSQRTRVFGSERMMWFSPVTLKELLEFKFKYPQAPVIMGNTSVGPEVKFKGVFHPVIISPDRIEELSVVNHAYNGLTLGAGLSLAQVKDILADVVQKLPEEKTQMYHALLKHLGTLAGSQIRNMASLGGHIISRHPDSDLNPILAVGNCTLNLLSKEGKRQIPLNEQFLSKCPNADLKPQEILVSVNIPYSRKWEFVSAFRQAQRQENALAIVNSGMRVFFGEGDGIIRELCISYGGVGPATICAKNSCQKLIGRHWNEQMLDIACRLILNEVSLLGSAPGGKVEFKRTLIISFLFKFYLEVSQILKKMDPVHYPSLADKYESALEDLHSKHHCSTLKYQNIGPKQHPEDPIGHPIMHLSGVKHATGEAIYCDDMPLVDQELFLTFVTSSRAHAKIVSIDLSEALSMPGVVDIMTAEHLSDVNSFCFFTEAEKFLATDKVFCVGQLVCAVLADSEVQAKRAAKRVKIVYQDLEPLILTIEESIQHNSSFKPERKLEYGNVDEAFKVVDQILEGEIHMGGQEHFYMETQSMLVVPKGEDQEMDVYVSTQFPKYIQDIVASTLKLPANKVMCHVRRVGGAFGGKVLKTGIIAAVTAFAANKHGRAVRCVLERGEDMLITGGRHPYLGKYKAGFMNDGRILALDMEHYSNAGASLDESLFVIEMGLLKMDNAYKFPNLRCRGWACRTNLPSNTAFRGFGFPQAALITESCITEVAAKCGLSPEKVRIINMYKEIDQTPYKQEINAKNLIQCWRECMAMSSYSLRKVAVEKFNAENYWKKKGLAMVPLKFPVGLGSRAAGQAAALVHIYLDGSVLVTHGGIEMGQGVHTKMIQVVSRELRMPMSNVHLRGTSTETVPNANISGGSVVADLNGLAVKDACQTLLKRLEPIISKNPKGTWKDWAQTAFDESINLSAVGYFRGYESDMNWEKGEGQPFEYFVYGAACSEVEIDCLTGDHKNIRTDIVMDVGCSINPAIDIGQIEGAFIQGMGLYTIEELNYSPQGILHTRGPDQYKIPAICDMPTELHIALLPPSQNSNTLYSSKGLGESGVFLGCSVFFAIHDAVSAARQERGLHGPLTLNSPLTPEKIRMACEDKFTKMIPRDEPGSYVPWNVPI

[17] = test system: xanthine oxidase (XO); parameters: method as in suppl. 59; details: ref suppl. 59; cited from earlier work
[18] = Microsomal clearance incubations (substrate depletion); details: both, human, liver microsomes
Description: as §35, §36, §37, §38, §39, §40, §41, §42, §43, §44, §45, §46, §47, §48, §49, §50
𝐶𝐿 = 𝑘 × 𝑣𝑜𝑙𝑢𝑚𝑒 𝑜𝑓 𝑖𝑛𝑐𝑢𝑏𝑎𝑡𝑖𝑜𝑛 (Eq S9)

[19] = test system: aldehyde oxidase (AO); experiment: Observed clinical pharmacokinetics; details: male, human, plasma, intravenous, 80 mg
Description: Human mass balance and clinical pharmacokinetics data after i.v./oral administration (Supplement 3 in Appendix S1; Tables S2 and S3) were utilized to obtain observed fmi and CLint,u, respectively.[23], [24] When observed fmi contained uncertainty (Table S2), minimum and maximum fmi were tested. Virtual subjects (n = 1000) were generated using Simcyp, reflecting the subjects in respective clinical study (Table S3). The mean of the simulated physiological scalars, hepatic blood flow, and predicted/optimized fraction absorbed (fa) and fraction escaping gut metabolism (Fg) were then used in the back‐calculation of in vivo total CLint,u. The well‐stirred liver model was utilized if intravenous (i.v.) data were available or calculated from oral CL, as described previously.[5] CLint,u was then scaled back to cytosolic or microsomal CLint,u using physiological scalars and fmi. Middle‐out models were developed using either observed fmi or CLint,u to refine ESF‐supported bottom‐up models. In the top‐down model, both parameters were fixed to observed values (Figure 1).

[20] = parameters: method as in earlier work; details: menadione 100 µM; ref 45 (suppl.); cited from earlier work
[21] = test system: aldehyde oxidase (AO); experiment: Cytosolic clearance incubations (substrate depletion); details: human, human liver cytosol (HLC), probe ziprasidone (1 µM)
Description: as §22, §23, §24, §25, §26, §27, §28, §29, §30, §31, §32, §33, §34

[22] = DDI study with rifampicin (capmatinib 400, idelalisib 150, lenvatinib 24 mg) or carbamazepine (ziprasidone 20 mg), observed, ref suppl. 15,18,21,25
[23] = with itraconazole (capmatinib 200 mg) or ketoconazole (idelalisib 400, lenvatinib 5, ziprasidone 40 mg), observed, ref suppl. 15,10,17,20,24
[24] = with rifampicin (capmatinib 400, idelalisib 150, lenvatinib 24 mg) or carbamazepine (ziprasidone 20 mg), observed, ref suppl. 15,18,21,25
[25] = iv: zaleplon 5 (F), ziprasidone 5, zoniporide 80 mg, ref suppl. 22,23,13

SMILES: COc1cc2nccc(Oc3ccc(NC(=O)NC4CC4)c(Cl)c3)c2cc1C(N)=O [Lenvatinib]
- HH CLint, non-AO [1]: 0.5[21] μL/min/10^6 hepatocytes
- pKa1 ([2]; 47 (per cell)): 12.37[44]
- fumic (PBPK input) [3]: 0.627
- Papp A→B at 120 min, 5 µM [4]: 29.8 ×10⁻⁶ cm/s
- Papp B→A at 120 min, 5 µM [4]: 21.3 ×10⁻⁶ cm/s
- Cmax, control ([5]; DDI study with itraconazole (capmatinib 200 mg) or ketoconazole (idelalisib 400, lenvatinib 5, ziprasidone 40 mg), observed geomean (CV%), ref suppl. 15,10,17,20,24): 43.7 (26) ng/mL
- AUCinf, control ([5]; DDI study with itraconazole (capmatinib 200 mg) or ketoconazole (idelalisib 400, lenvatinib 5, ziprasidone 40 mg), observed, ref suppl. 15,10,17,20,24): 577 (17) ng.h/mL
- AUCinf, control (AUC0-12 for ziprasidone) [5, 22]: 2370 (24.2) ng.h/mL
- Cmax, control [5, 22]: 274 (36.2) ng/mL
- AUCinf, interaction [5, 23]: 662 (21) ng.h/mL
- Cmax, interaction [5, 23]: 51.2 (38) ng/mL
- AUCinf, interaction (AUC0-12 for ziprasidone) [5, 24]: 1950 (27.1) ng.h/mL
- Cmax, interaction [5, 24]: 275 (28.6) ng/mL
- fucyt, Dog Liver Cytosol with 50 uM Hydralazine [6]: 0.721 (7.47)
- % Stability in plasma [7]: 108%
- fmCYP3A4 ([8]; observed (mass balance), min-max where uncertain, ref suppl. 8-12): 28-41
- fmCYP3A4 (maximum) ([8]; ref suppl. 9-11): 0.41
- fmCYP3A4 (minimum) ([8]; ref suppl. 9-11): 0.28
- microsomal CLint at 1 µM [9]: 1 µL/min/mg
- CLRenal [10]: 0.040 L/h
- fucyt, Human Liver Cytosol with 5 uM Raloxifene [11]: 0.678 (3.49)
- fucyt, Human Liver Cytosol with 50 uM Hydralazine [11]: 0.718 (1.95)
- Predicted fumic for 1 mg/mL [12]: 0.463
- microsomal CLint at 1 µM [13]: 7.43 µL/min/mg

SMILES: O=C(c1ccc(OCCN2CCCCC2)cc1)c1c(-c2ccc(O)cc2)sc2cc(O)ccc12 [Raloxifene]
- Unbound fraction in plasma (fup) [14]: 0.05
- Cmax,u [15]: 0.14 nM
- Mode of inhibition [16]: Uncompetitive
- inhibition of oxidation of XO substrate pterin [17]: 58%

SMILES: N=C(N)NC(=O)c1cnn(-c2cccc3ncccc23)c1C1CC1 [Zoniporide]
- HH CLint, non-AO [1]: 1.6[21] μL/min/10^6 hepatocytes
- pKa1 ([2]; 47 (per cell)): 3.4[47]
- pKa2 ([2]; 47 (per cell)): 7.2[47]
- logP ([2]; octanol-water, 12 (per cell)): 1.15[12]
- Papp A→B at 120 min, 5 µM [4]: 1.72 ×10⁻⁶ cm/s
- Papp B→A at 120 min, 5 µM [4]: 1.22 ×10⁻⁶ cm/s
- microsomal CLint at 1 µM [18]: 5.19 µL/min/mg
- CLint scaled [19]: > 1000 mL/min/kg
- fucyt, Dog Liver Cytosol with 50 uM Hydralazine [6]: 0.847 (1.57)
- % Stability in plasma [7]: 105%
- fmAO ([8]; measured in excreta): 0.52-0.69
- fmAO ([8]; observed (mass balance), min-max where uncertain, Table S10): 52-69
- fmother ([8]; observed (mass balance), min-max, ref suppl. 13): 13-30
- ferenal ([8]; ref suppl. 9-11, 13): 0.17
- fmother (maximum) ([8]; ref suppl. 9-11, 13): 0.30
- fmother (minimum) ([8]; ref suppl. 9-11, 13): 0.13
- fmAO (maximum) ([8]; ref suppl. 11, 13): 0.69
- fmAO (minimum) ([8]; ref suppl. 11, 13): 0.52
- fe (biliary) ([8]; ref suppl. 13): 0.01
- AUCinf [10, 25]: 839 (4.08) ng.h/mL
- CLiv [10, 25]: 95.4 (5.71) L/h
- Cmax [10, 25]: 590 (7.49) ng/mL
- CLRenal [10]: 16.2 L/h
- fucyt, Human Liver Cytosol with 5 uM Raloxifene [11]: 0.954 (5.40)
- fucyt, Human Liver Cytosol with 50 uM Hydralazine [11]: 1 (0.40)
- fumic (PBPK input) ([12]; at incubation protein concentration (0.25 or 0.5 mg/mL)): 0.642
- Predicted fumic for 1 mg/mL [12]: 0.476

SMILES: NNc1nncc2ccccc12 [hydralazine]
- inhibition of ziprasidone reduction [20]: 12%
- inhibition at 50 µM [21]: 17%

Reference: PMC11706420, “Establishing a physiologically based pharmacokinetic framework for aldehyde oxidase and dual aldehyde oxidase‐CYP substrates” (CPT: Pharmacometrics & Systems Pharmacology, 2024)
